One data set concerns A 549 lung cancer cells. The data set can be described thus: Inhibition of A549 lung cancer cells. Format: cell-based. The settings on record: for A549 Max-INH: maximal inhibition; for IC50: Homo sapiens. From the text: (§1) The molecular structure of specific compounds is described as follows: […]
The target in the next data set is T1, KGA (Homo sapiens, UniProt O94925).
T1 sequence (O94925 55-669): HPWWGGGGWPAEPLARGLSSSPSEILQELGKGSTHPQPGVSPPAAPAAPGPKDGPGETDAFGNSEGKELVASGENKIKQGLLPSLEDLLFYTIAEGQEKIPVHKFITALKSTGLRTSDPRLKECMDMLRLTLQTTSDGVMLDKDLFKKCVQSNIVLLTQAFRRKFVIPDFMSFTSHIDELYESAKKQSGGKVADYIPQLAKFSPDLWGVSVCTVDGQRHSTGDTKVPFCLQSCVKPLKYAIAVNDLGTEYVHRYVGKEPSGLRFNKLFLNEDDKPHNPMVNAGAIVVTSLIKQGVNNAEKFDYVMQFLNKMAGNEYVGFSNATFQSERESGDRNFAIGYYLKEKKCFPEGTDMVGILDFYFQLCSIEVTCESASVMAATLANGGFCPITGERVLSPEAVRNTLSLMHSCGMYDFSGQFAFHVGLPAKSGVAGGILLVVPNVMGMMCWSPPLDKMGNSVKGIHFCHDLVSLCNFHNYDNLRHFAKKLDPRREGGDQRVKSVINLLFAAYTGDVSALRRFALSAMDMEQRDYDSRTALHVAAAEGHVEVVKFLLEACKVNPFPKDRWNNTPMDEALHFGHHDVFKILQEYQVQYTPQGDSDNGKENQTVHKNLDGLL
The data set can be described thus: KGA inhibition IC50. Type of data set: biochemical.
Excerpt: as §1

Another data set concerns the target GDH (Homo sapiens, UniProt P00367). The data set can be described thus: GDH inhibition IC50. Type of data set: biochemical.
Setting [1] is: A549 cells, read-out: A549 IC50.

By melting point is commonly meant the temperature, or range, at which the solid turns liquid. For orientation: IC50 means the concentration needed to halve the response being measured.

Like-named read-outs stand apart in the source and are kept apart here.

GDH, sequence (P00367 54-558): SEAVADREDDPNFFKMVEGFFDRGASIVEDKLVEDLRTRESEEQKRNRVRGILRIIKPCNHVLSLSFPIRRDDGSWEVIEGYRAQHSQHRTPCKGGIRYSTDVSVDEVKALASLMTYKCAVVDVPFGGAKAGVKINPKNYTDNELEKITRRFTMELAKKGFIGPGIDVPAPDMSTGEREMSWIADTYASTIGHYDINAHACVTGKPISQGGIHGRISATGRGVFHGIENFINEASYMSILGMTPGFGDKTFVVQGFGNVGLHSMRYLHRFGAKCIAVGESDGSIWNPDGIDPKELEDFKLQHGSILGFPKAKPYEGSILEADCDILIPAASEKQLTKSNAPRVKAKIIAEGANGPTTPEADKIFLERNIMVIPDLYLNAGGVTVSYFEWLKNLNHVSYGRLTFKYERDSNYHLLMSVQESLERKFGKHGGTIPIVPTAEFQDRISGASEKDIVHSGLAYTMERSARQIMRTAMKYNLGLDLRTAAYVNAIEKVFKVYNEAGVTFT

As for `c1ccc(Nc2nnc(Cc3nnc(Nc4ccccc4)[se]3)[se]2)cc1`, the melting point was in the range of 130 to 132 °C.
On the same count and under the same terms, under `c1ccc(Nc2nnc(CCc3nnc(Nc4ccccc4)[se]3)[se]2)cc1` stands 160 to 161 °C; under `c1ccc(Nc2nnc(CCCc3nnc(Nc4ccccc4)[se]3)[se]2)cc1`, 198 to 201 °C.
The molecule `c1ccc(Nc2nnc(CCCCCc3nnc(Nc4ccccc4)[se]3)[se]2)cc1` displayed a melting point of 165 to 171 °C.
The same measure, in the same setting: under `ClCCc1nnc(Nc2ccccc2)[se]1` stands 109 to 110 °C; under `ClCCc1nnc(NCc2ccccc2)[se]1`, 109 to 110 °C.
Molecule `ClCCc1nnc(NCCc2ccccc2)[se]1` registered a melting point of 109 to 110 °C.
Same read-out and setting: to `N=C(N)NCc1nnc(Nc2ccccc2)[se]1` belongs 109 to 110 °C.
The same measure, in the same setting: to `c1ccc(Nc2nnc(CCSCCc3nnc(Nc4ccccc4)[se]3)[se]2)cc1` belongs 172 to 174 °C.
Consider `Cn1cc(CC(=O)Nc2nnc(CCSCCc3nnc(N)[se]3)[se]2)c2ccccc21`, for which the “A549 Max-INH” value with A 549 lung cancer cells (A549 cells) turned out to be 84%. Further, the 50% inhibitory concentration (IC50) was 2050 nM with A 549 lung cancer cells (setting [1]), 110 nM against KGA and above 10000 nM against GDH.
On to `Cn1cc(CC(=O)Nc2nnc(CCSCCc3nnc(N)s3)s2)c2ccccc21`, for which, in the data set with A 549 lung cancer cells (A549 cells), the “A549 Max-INH” value amounted to 55%. In addition, the IC50 in the data set on A 549 lung cancer cells (setting [1]) is 9700 nM; on KGA (read-out: KGA IC50) it was 140 nM; at GDH, above 10000 nM.
As to `Cn1cc(CC(=O)Nc2nnc(CCSCCc3nnc(NC(=O)Cc4cn(C)c5ccccc45)[se]3)[se]2)c2ccccc21`, the “A549 Max-INH” value with A 549 lung cancer cells (A549 cells) amounted to 90%. The results for the half-maximal inhibitory concentration (IC50) with A 549 lung cancer cells (setting [1]), on KGA (read-out: KGA IC50) and at GDH were 160 nM, 27 nM and above 10000 nM, respectively.
The corresponding values for `Cn1cc(CC(=O)Nc2nnc(CCSCCc3nnc(NC(=O)Cc4cn(C)c5ccccc45)s3)s2)c2ccccc21` are 80%, 820 nM, 280 nM and above 10000 nM.
Consider `Cn1ccc(CC(=O)Nc2nnc(CCSCCc3nnc(N)[se]3)[se]2)c1`, for which, in the data set with A 549 lung cancer cells (A549 cells), the “A549 Max-INH” value was 40%. The concentration for half-maximal inhibition (IC50) was above 10000 nM with A 549 lung cancer cells (setting [1]), 210 nM at KGA and above 10000 nM against GDH.
`Cn1ccc(CC(=O)Nc2nnc(CCSCCc3nnc(N)s3)s2)c1`: the “A549 Max-INH” value in the data set on A 549 lung cancer cells (A549 cells) was determined as 0%. In addition, the IC50 with A 549 lung cancer cells (setting [1]) was above 10000 nM; at KGA (read-out: KGA IC50), 570 nM; against GDH, above 10000 nM.
As for `Cn1ccc(CC(=O)Nc2nnc(CCSCCc3nnc(NC(=O)Cc4ccn(C)c4)[se]3)[se]2)c1`, the “A549 Max-INH” value in the data set with A 549 lung cancer cells (A549 cells) came out at 91%. Also, the IC50 with A 549 lung cancer cells (setting [1]) is 3100 nM; on KGA (read-out: KGA IC50) it was 60 nM; against GDH, above 10000 nM.
The corresponding values for `Cn1ccc(CC(=O)Nc2nnc(CCSCCc3nnc(NC(=O)Cc4ccn(C)c4)s3)s2)c1` are 80%, 6500 nM, 130 nM and above 10000 nM.
On to `Nc1nnc(CCSCCc2nnc(NC(=O)Cc3ccccc3)[se]2)[se]1`, for which the “A549 Max-INH” value in the data set with A 549 lung cancer cells (A549 cells) amounted to 62%. The IC50 in the data set with A 549 lung cancer cells (setting [1]) is 6300 nM; against KGA, 1400 nM; on GDH, above 10000 nM.
As to `O=C(Cc1ccccc1)Nc1nnc(CCSCCc2nnc(NC(=O)Cc3ccccc3)[se]2)[se]1`, in the data set with A 549 lung cancer cells (A549 cells), the “A549 Max-INH” value was 66%. In addition, the IC50 was 300 nM in the data set with A 549 lung cancer cells (setting [1]), 60 nM at KGA (read-out: KGA IC50) and above 10000 nM at GDH.
For `O=C(Cc1ccccc1)Nc1nnc(CCSCCc2nnc(NC(=O)Cc3ccccc3)s2)s1`, the “A549 Max-INH” value with A 549 lung cancer cells (A549 cells) was found to be 75%. For the same molecule, the IC50 in the data set on A 549 lung cancer cells (setting [1]) was 870 nM.
As for `Nc1nnc(CCSCCc2nnc(NC(=O)C34CC5CC(CC(C5)C3)C4)[se]2)[se]1`, the “A549 Max-INH” value with A 549 lung cancer cells (A549 cells) came out at 17%. The figures for the IC50 in the data set on A 549 lung cancer cells (setting [1]), on KGA and against GDH were above 10000 nM, 4000 nM and above 10000 nM, respectively.
Regarding `O=C(Nc1nnc(CCSCCc2nnc(NC(=O)C34CC5CC(CC(C5)C3)C4)[se]2)[se]1)C12CC3CC(CC(C3)C1)C2`, in the data set on A 549 lung cancer cells (A549 cells), the “A549 Max-INH” value is given as 17%. The IC50 with A 549 lung cancer cells (setting [1]) is above 10000 nM; on KGA it was 1900 nM; against GDH, above 10000 nM.
Turning to `O=C(Cc1cccc(OC(F)(F)F)c1)Nc1ccc(CCCCc2nnc(NC(=O)Cc3ccccn3)[se]2)nn1`, the “A549 Max-INH” value in the data set with A 549 lung cancer cells (A549 cells) is listed as 77%. The IC50 with A 549 lung cancer cells (setting [1]) is 17 nM; on KGA (read-out: KGA IC50), 1 nM; against GDH it was above 10000 nM.
On to `O=C(Cc1cccc(OC(F)(F)F)c1)Nc1ccc(CCCCc2nnc(NC(=O)Cc3ccccn3)s2)nn1`, for which the “A549 Max-INH” value in the data set on A 549 lung cancer cells (A549 cells) is on record as 70%. Moreover, the IC50 with A 549 lung cancer cells (A549, read-out: A549 IC50) was 40 nM; against GDH it was above 10000 nM.
As to `Cn1cc(CC(=O)Nc2nnc(CCCCc3ccc(NC(=O)Cc4cccc(OC(F)(F)F)c4)nn3)[se]2)c2ccccc21`, in the data set with A 549 lung cancer cells (A549 cells), the “A549 Max-INH” value amounted to 90%. The IC50 was 17 nM with A 549 lung cancer cells (setting [1]), 1 nM on KGA (read-out: KGA IC50) and above 10000 nM on GDH.
As for `COc1ccc2c(c1)c(CC(=O)Nc1nnc(CCCCc3ccc(NC(=O)Cc4cccc(OC(F)(F)F)c4)nn3)[se]1)cn2C`, the “A549 Max-INH” value in the data set on A 549 lung cancer cells (A549 cells) is 90%. Moreover, the IC50 in the data set with A 549 lung cancer cells (setting [1]) is 10 nM; on KGA (read-out: KGA IC50), 5 nM; against GDH, above 10000 nM.

The values above are taken from patent US10975048B2, “Composition of 1,3,4-selenadiazole containing compounds with pharmacological activity” (HANGZHOU JENNIFER BIOTECH CO., LTD, priority 2015, dated 2021).
